The nature of series [1]: MTT cytotoxicity in N9 cells. It is filed as cell-based, murine. To be noted: mouse, N9 microglial cells, cytotoxic activity. A digest of the protocol:
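N9 microglial cells seeded at 1.5–3 × 10^4 cells/mL, grown 24 h, then exposed to compounds at 6.25–100 μM in triplicate for 96 h. Viability by MTT (4 h), formazan dissolved in DMSO, absorbance at 570 nm; MTT-IC20 derived.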

The next series concerns MDA-MB-231 cells. Put plainly: MTT cytotoxicity in MDA-MB-231 cells. To be noted: Homo sapiens. It is filed as cell-based. A digest of the protocol:
(§1)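 Standard MTT assay: cells seeded 24 h, treated with compounds at 6.25–100 μM in triplicate, then grown for 96 h total. Run under normoxia (air throughout) or hypoxia (95% N2 for 24 h, then 72 h normoxia). MTT added for 4 h, formazan dissolved in DMSO, absorbance read at 570 nm.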

Series [2] concerns TNF-α release of LPS-induced N9 cells. Put plainly: TNF-α release of LPS-induced N9 cells (cytokine kit). Format: cell-based, murine. As to conditions: compound 1 μM, LPS 1 μg/mL, 48 h. On the procedure: (§2) N9 cells, which were in the logarithmic phase, were incubated for 24 h by adherent culture. Subsequently, the medium was changed to new one without serum. The cells were treated with different concentration of tested compounds. After specific time in the LPS condition, the supernatants were collected and analyzed.
(§3) The secreted level of TNF-α and IL-6 was measured using mouse Th1/Th2/Th17 Cytokine Kit, purchased from BD Pharningen. The data was analyzed by FCAP Array v3.0. IL-2, IL-4, IL-10, IL-17A, and IFN-γ were not detected in the experiment.

Series [3] concerns NO release of LPS-induced microglial N9 cells. Put plainly: Inhibition of NO release in LPS-induced N9 cells (Griess). Format: cell-based, murine. As to conditions: Mus musculus, 1 μg/mL LPS for 48 h, NO level in medium. The essentials: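 Log-phase N9 microglia were grown adherent for 24 h, switched to serum-free medium, then given test compounds under LPS stimulation. Nitrite in supernatant was quantified by Griess reaction at 540 nm; MTT-IC20 was determined to exclude cytotoxic effects.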

Series [4] relates to IL-6 release of LPS-induced N9 cells. The series can be described thus: IL-6 release of LPS-induced N9 cells (cytokine kit). Format: cell-based, murine. As to conditions: compound 1 μM, LPS 1 μg/mL, 48 h. On the procedure:
as §2, §3

The subject of another series is HT-29 cells. The series can be described thus: MTT cytotoxicity in HT-29 cells. Format: cell-based, Human. As to conditions: for IC50: Homo sapiens, MTT.
For a further series, the system named is A549 cells. The series can be described thus: MTT cytotoxicity in A549 cells. It is filed as cell-based. To be noted: Homo sapiens. A digest of the protocol: as §1
Series [5] is described as follows: NO capture analysis with sodium nitroprusside (Griess). As to conditions: 0.01-10 μM compound, 0.5 mM SNP solution, 1 h, room temperature. On the procedure:
Sodium nitroprusside (SNP) is a NO donor. In this experiment, the reason of the DCH reducing NO level was preliminary explored. […] That means the main reason of the NO level reduction is due to species-specific effect.
SNP was dissolved in PBS to prepare the 100 mM stock solution. In this experiment, SNP solution of […] was added to 975 μL PBS solution which included different concentration of tested compounds. After 60 min under r.t. condition, the concentration of NO2^− was tested using Griess assay.
6l (0.01 μM, 0.1 μM, 1 μM, and 10 μM) or 5n (0.01 μM, 0.1 μM, 1 μM, and 10 μM) was added to a concentration of 0.5 mM SNP solution. […] Data were shown as mean ± SD. *** p < 0.001 compared with control group.
(Nitrite, measured by Griess reagent, commonly stands in for NO production.)

In a further series the test system is HCT-116 cells. Put plainly: MTT cytotoxicity in HCT-116 cells. It is filed as cell-based. To be noted: Homo sapiens. A digest of the protocol:
as §1

Consider one compound from PMC6539525, “Design, Synthesis, and Mechanism of Dihydroartemisinin–Coumarin Hybrids as Potential Anti-Neuroinflammatory Agents” (Molecules, 2019).

Read-outs that look alike come from different tables or passages of the source.

The term IC20 denotes the concentration at which the effect reaches the 20% level. The term IC50 denotes the midpoint of a concentration-inhibition curve. By inhibition is commonly meant the percentage by which the read-out fell short of the control. Usually melting point stands for the temperature, or range, at which the solid turns liquid. In the case of `Cc1ccc2c(OCc3cn(CCO[C@H]4O[C@@H]5O[C@@]6(C)CC[C@H]7[C@H](C)CC[C@@H]([C@H]4C)[C@@]57OO6)nn3)cc(=O)oc2c1C` [5n], the melting point fell in the range of 91 to 93 °C. Besides, the IC20 in series [1] was found to be 2.44 µM. Besides, the IC50 in the series with MDA-MB-231 cells (MDA-MB-231, hypoxia 24 h then normoxia 72 h, read-out: IC50 MDA-MB-231 Hypoxia) is 11.7 µM. Further, the IC50 with MDA-MB-231 cells (MDA-MB-231, normoxia 96 h, read-out: IC50 MDA-MB-231 Normoxia) is 11 µM. Besides, the inhibition at 1 µM in series [2] (Mus musculus) is 22%. The compound also displayed a TNF-α in [2] of 3508.08 ± 368.72 pg/mL. The same compound returned an IC50 in series [3] of 0.22 µM. Testing at 1 µM in [4] (Mus musculus) gave an inhibition of 43.1%. In series [4], this compound registered an IL-6 of 656.75 ± 79.49 pg/mL. For the same compound, the “cell viability of HT-29 cells” value in the series with HT-29 cells (6.25-100 μM for 48 h, MTT staining) is reported as “decreased in a dose-dependent manner”. Further, in the series on HT-29 cells (HT-29, hypoxia 24 h then normoxia 72 h, read-out: IC50 HT-29 Hypoxia), the concentration for half-maximal inhibition (IC50) turned out to be 8.9 µM. Moreover, the IC50 in the series with HT-29 cells (HT-29, normoxia 96 h, read-out: IC50 HT-29 Normoxia) was determined as 10.2 µM. Further, in the series on A549 cells (A549, hypoxia 24 h then normoxia 72 h, read-out: IC50 A549 Hypoxia), the IC50 amounted to 2.44 µM. Also, the half-maximal inhibitory concentration (IC50) in the series with A549 cells (A549, normoxia 96 h, read-out: IC50 A549 Normoxia) was 2.11 µM. For the same compound, in series [5], the “NO radical scavenging activity” value was “had NO radical scavenging activity”. The IC50 in the series with HCT-116 cells (HCT-116, hypoxia 24 h then normoxia 72 h, read-out: IC50 HCT-116 Hypoxia) was found to be 32.9 µM. Also, the half-maximal inhibitory concentration (IC50) in the series with HCT-116 cells (HCT-116, normoxia 96 h, read-out: IC50 HCT-116 Normoxia) was determined as 25.6 µM.
